Laboratory results reported in patent US20110269743A1, “PHENYLTHIOPHENYLDIHYDROBENZOTHIAZEPINE INHIBITORS OF STORE OPERATED CALCIUM RELEASE” (CalciMedica, Inc, priority 2008, published 2011).

Legend:
JR251 or RBL cells = experiment: Fluorescence-based store-operated calcium entry assay, IC50 in JR251 or RBL cells; format: cell-based; details: in either JR251 or RBL cells, or both
Protocol: The day prior to performing the assay, RBL-2H3 cells are plated in 50 μL of complete medium in a 384 well plate. Cells are grown at 37° C./6% CO2 overnight and grow to 50-60% confluence by the next day. On the assay day, 1.5 μM Fluo-4-AM dye (Invitrogen) in complete medium is added and incubated for 1 hour at RT. Cells are washed twice in Ca^2+-free HBSS buffer and 35 μL Ca^2+-free HBSS buffer is added to each well. 10 μL of a test compound prepared in a Ca^2+-free HBSS solution at 4.5× of the desired concentration is added to a well and incubated for 5 minutes at RT. 10 μL of thapsigargin prepared in a Ca^2+-free HBSS solution at 5.5× of the desired concentration (5.5 uM) is added to each well and incubated for an additional 25 minutes. The initial baseline fluorescence signal is measured with a FLIPR^384 (Molecular Devices) plate reader. 5 μL of 12× calcium in HBSS (12 mM) is added and changes in cellular fluorescence are measured with the FLIPR^384 plate reader. In each well, the change in the fluorescent signal as a function of time due to calcium entry into the cell is determined by calculating the difference between the fluorescent signal measured 7 seconds after calcium addition and the initial baseline fluorescence signal at time zero (t=0). This parameter is designated Upslope. The IC50 value is calculated as the concentration at which 50% of the Upslope is inhibited.
The day prior to performing the assay, Jurkat E6-1 cells are seeded at a density of 2 million cells/mL in complete medium in a T-175 flask. Cells are grown at 37° C./6% CO2 overnight. On the following day, 1.5 μM Fluo-4-AM dye (Invitrogen) in complete medium is added and incubated for 1 hour at RT. Cells are harvested, washed twice in Ca^2+-free HBSS buffer and plated in 35 μL Ca^2+-free HBSS buffer in a 384 well plate. 10 μL of a test compound prepared in a Ca^2+-free HBSS solution at 4.5× of the desired concentration is added to a well and incubated for 5 minutes at RT. 10 μL of thapsigargin prepared in a Ca^2+-free HBSS solution at 5.5× of the desired concentration (5.5 uM) is added to each well and incubated for an additional 25 minutes. The initial baseline fluorescence signal is measured with a FLIPR^384 (Molecular Devices) plate reader. 5 μL of 12× calcium in HBSS (12 mM) is added and changes in cellular fluorescence are measured with the FLIPR^384 plate reader. In each well, the change in the fluorescent signal as a function of time due to calcium entry into the cell is determined by calculating the difference between the fluorescent signal measured 7 seconds after calcium addition and the initial baseline fluorescence signal at time zero (t=0). This parameter is designated Upslope. The IC50 value is calculated as the concentration at which 50% of the Upslope is inhibited.

[1] = test system: Jurkat cells and colon cancer cells; details: cited from earlier work
[2] = target: STIM1 and Orai1 in HEK293 cells (Homo sapiens, UniProt Q96D31); details: HEK293 cells coexpressing STIM1 and Orai1; cited from earlier work
Sequence of STIM1 and Orai1 in HEK293 cells (Q96D31 whole entry): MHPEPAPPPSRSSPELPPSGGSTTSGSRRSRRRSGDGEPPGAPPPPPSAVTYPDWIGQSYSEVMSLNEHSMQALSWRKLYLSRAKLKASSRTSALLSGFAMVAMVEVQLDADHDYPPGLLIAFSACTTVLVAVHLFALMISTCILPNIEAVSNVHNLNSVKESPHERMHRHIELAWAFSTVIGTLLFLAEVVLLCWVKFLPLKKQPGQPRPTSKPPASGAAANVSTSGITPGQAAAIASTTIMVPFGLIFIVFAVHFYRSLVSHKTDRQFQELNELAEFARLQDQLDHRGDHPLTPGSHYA

COc1ccc(C2CC(c3ccco3)=Nc3ccccc3S2)cc1 (centres unmarked) [(E)-4-(furan-2-yl)-2-(4-methoxyphenyl)-2,3-dihydrobenzo[b][1,4]thiazepine]
IC50 (JR251 or RBL cells): < 10 µM

Fc1ccc(C2CC(c3cccs3)=Nc3ccccc3S2)cc1 (centres unmarked) [(E)-2-(4-fluorophenyl)-4-(thiophen-2-yl)-2,3-dihydrobenzo[b][1,4]thiazepine]
IC50 (JR251 or RBL cells): < 10 µM

Cc1nnsc1C(=O)Nc1ccc(-n2nc(C(F)(F)F)cc2C(F)(F)F)cc1 [BTP-2]
inhibition of SOCE and proliferation [1]: inhibits SOCE and proliferation

NCCOB(c1ccccc1)c1ccccc1 [2-aminoethoxydiphenylborate]
block of store-operated Ca2+ entry [2]: completely blocked

Fc1ccccc1C1CC(c2ccco2)=Nc2ccccc2S1 (centres unmarked) [(E)-2-(2-fluorophenyl)-4-(furan-2-yl)-2,3-dihydrobenzo[b][1,4]thiazepine]
IC50 (JR251 or RBL cells): < 10 µM

FC(F)Oc1ccc(C2CC(c3cccs3)=Nc3ccccc3S2)cc1 (centres unmarked) [(E)-2-(4-(difluoromethoxy)phenyl)-4-(thiophen-2-yl)-2,3-dihydrobenzo[b][1,4]thiazepine]
IC50 (JR251 or RBL cells): < 10 µM

Clc1ccc(C2CC(c3ccco3)=Nc3ccccc3S2)c(Cl)c1 (centres unmarked) [(E)-2-(2,4-dichlorophenyl)-4-(furan-2-yl)-2,3-dihydrobenzo[b][1,4]thiazepine]
IC50 (JR251 or RBL cells): < 10 µM

FC(F)Oc1ccc(C2CC(c3ccco3)=Nc3ccccc3S2)cc1 (centres unmarked) [(E)-2-(4-(difluoromethoxy)phenyl)-4-(furan-2-yl)-2,3-dihydrobenzo[b][1,4]thiazepine]
IC50 (JR251 or RBL cells): < 10 µM

Cc1ccc(C2CC(c3ccco3)=Nc3ccccc3S2)cc1 (centres unmarked) [(E)-4-(furan-2-yl)-2-p-tolyl-2,3-dihydrobenzo[b][1,4]thiazepine]
IC50 (JR251 or RBL cells): < 10 µM

FC(F)(F)c1ccc(C2CC(c3ccco3)=Nc3ccccc3S2)cc1 (centres unmarked) [(E)-4-(furan-2-yl)-2-(4-(trifluoromethyl)phenyl)-2,3-dihydrobenzo[b][1,4]thiazepine]
IC50 (JR251 or RBL cells): < 10 µM

Fc1ccc(C2CC(c3ccco3)=Nc3ccccc3S2)cc1 (centres unmarked) [(E)-2-(4-fluorophenyl)-4-(furan-2-yl)-2,3-dihydrobenzo[b][1,4]thiazepine]
IC50 (JR251 or RBL cells): < 10 µM

COc1ccc(C2CC(c3ccco3)=Nc3ccccc3S2)c(OC)c1 (centres unmarked) [(E)-2-(2,4-dimethoxyphenyl)-4-(furan-2-yl)-2,3-dihydrobenzo[b][1,4]thiazepine]
IC50 (JR251 or RBL cells): < 10 µM

COc1ccc(C2CC(c3cccs3)=Nc3ccccc3S2)cc1OC (centres unmarked) [(E)-2-(3,4-dimethoxyphenyl)-4-(thiophen-2-yl)-2,3-dihydrobenzo[b][1,4]thiazepine]
IC50 (JR251 or RBL cells): < 10 µM

Cc1ccc(C2CC(c3cccs3)=Nc3ccccc3S2)cc1 (centres unmarked) [(E)-4-(thiophen-2-yl)-2-p-tolyl-2,3-dihydrobenzo[b][1,4]thiazepine]
IC50 (JR251 or RBL cells): < 10 µM
